Experimental findings from patent US12466800B2, “N-((1,2,3,5,6,7-hexahydro-S-indacen-4-yl)carbamoyl)-4, 5, 6, 7-tetrahydrobenzofuran-2-sulfonamide derivatives and related compounds as NLPR3 modulators for the treatment of multiple sclerosis (MS)” (Zomagen Biosciences Ltd, priority 2019, dated 2025) are described below.

Each structure is given as a SMILES string.

The test system of the experiment is IL-1b. Put plainly: Mouse BMDM IL-1b Assay. The settings on record: Macrophage; mouse bone marrow derived macrophages (C57BL6); 200 ng/mL LPS 3 h, compound 30 min, 5 mM ATP 45 min; IL-1b ELISA of supernatant. In kind it is cell-based. The protocol: Example 20: Mouse BMDM IL-1b Assay
Mouse bone marrow cells from C57BL6 tibia and femur were culture in complete Isocov's Media supplemented with 20 ng/mL MCSF (BMDM media) at a density of 50 million cells/15 cm Petri dish. Fresh media was changed every 3 days, and bone marrow derived macrophages were collected, washed, and counted on day 7. Cells were seeded into 96 well plates at a density of 5×10^4 cells per well in 100 uL of BMDM media and cultured overnight. The cells were stimulated at 37° C. with 200 ng/mL Ultrapure LPS-B5 for 3 hours before pre-diluted compounds were added. 30 minutes after compound addition, 5 mM ATP was added for the secondary stimulation for 45 minutes. After stimulation, the plates were briefly spun down, and 50 uL of supernatant was harvested from each well. ELISA for mouse IL-1b was performed with 1:10 and 1:100 diluted supernatant using pre-coated kits. IL-1b concentrations were calculated based on pre-titrated standards, and compound inhibition IC50 is generated using the Levenberg Marquardt damped lease-square method.
In general terms: ELISA stands for enzyme-linked immunosorbent assay.

`CC1CC(=NO)c2cc(S(=O)(=O)NC(=O)Nc3c4c(cc5c3CCC5)CCC4)oc2C1` (centres unmarked) [Compound 48, N-((1,2,3,5,6,7-hexahydro-s-indacen-4-yl)carbamoyl)-4-(hydroxyimino)-6-methyl-4,5,6,7-tetrahydrobenzofuran-2-sulfonamide] returned an IC50 of 100 to 1000 nM.
With `CC1(C)CC(=NO)c2cc(S(=O)(=O)NC(=O)Nc3c4c(cc5c3CCC5)CCC4)oc2C1` [Compound 49, N-((1,2,3,5,6,7-hexahydro-s-indacen-4-yl)carbamoyl)-4-(hydroxyimino)-6,6-dimethyl-4,5,6,7-tetrahydrobenzofuran-2-sulfonamide] the figure was 100 to 1000 nM; with `CC1(C)CCc2oc(S(=O)(=O)NC(=O)Nc3c4c(cc5c3CCC5)CCC4)cc2C1=NO` [Compound 50, N-((1,2,3,5,6,7-hexahydro-s-indacen-4-yl)carbamoyl)-4-(hydroxyimino)-5,5-dimethyl-4,5,6,7-tetrahydrobenzofuran-2-sulfonamide], below 100 nM; with `Cc1c2c(c(NC(=O)NS(=O)(=O)c3cc4c(o3)CCCC4(C)O)c3c1CCC3)CCC2` (centres unmarked) [Compound 51, 4-hydroxy-4-methyl-N-((8-methyl-1,2,3,5,6,7-hexahydro-s-indacen-4-yl)carbamoyl)-4,5,6,7-tetrahydrobenzofuran-2-sulfonamide], below 100 nM.
In turn, `Cc1c2c(c(NC(=O)NS(=O)(=O)c3cc4c(o3)CCCC4O)c3c1CCC3)CCC2` (centres unmarked) [Compound 52, 4-hydroxy-N-((8-methyl-1,2,3,5,6,7-hexahydro-s-indacen-4-yl)carbamoyl)-4,5,6,7-tetrahydrobenzofuran-2-sulfonamide] came in with an IC50 below 100 nM.
With `CC1(O)CCCc2oc(S(=O)(=O)NC(=O)Nc3c4c(c(C#N)c5c3CCC5)CCC4)cc21` (centres unmarked) [Compound 53, N-((8-cyano-1,2,3,5,6,7-hexahydro-s-indacen-4-yl)carbamoyl)-4-hydroxy-4-methyl-4,5,6,7-tetrahydrobenzofuran-2-sulfonamide] the figure was 100 to 1000 nM.
`N#Cc1c2c(c(NC(=O)NS(=O)(=O)c3cc4c(o3)CCCC4O)c3c1CCC3)CCC2` (centres unmarked) [Compound 54, N-((8-cyano-1,2,3,5,6,7-hexahydro-s-indacen-4-yl)carbamoyl)-4-hydroxy-4,5,6,7-tetrahydrobenzofuran-2-sulfonamide]: the IC50 fell in the range of 100 to 1000 nM.
With `O=C(Nc1c2c(c(C(F)(F)F)c3c1CCC3)CCC2)NS(=O)(=O)c1cc2c(o1)CCCC2O` (centres unmarked) [Compound 55, 4-hydroxy-N-((8-(trifluoromethyl)-1,2,3,5,6,7-hexahydro-s-indacen-4-yl)carbamoyl)-4,5,6,7-tetrahydrobenzofuran-2-sulfonamide] the figure was below 100 nM.
With `O=C(Nc1c2c(cc3c1CCC3)CCC2)NS(=O)(=O)c1cc2c(o1)CCCC2(O)C(F)(F)F` (centres unmarked) [Compound 56, N-((1,2,3,5,6,7-hexahydro-s-indacen-4-yl)carbamoyl)-4-hydroxy-4-(trifluoromethyl)-4,5,6,7-tetrahydrobenzofuran-2-sulfonamide] the figure was below 100 nM.
With `CN1CCCc2oc(S(=O)(=O)NC(=O)Nc3c4c(cc5c3CCC5)CCC4)cc2C1=O` [Compound 57, N-((1,2,3,5,6,7-hexahydro-s-indacen-4-yl)carbamoyl)-5-methyl-4-oxo-5,6,7,8-tetrahydro-4H-furo[3,2-c]azepine-2-sulfonamide] the figure was 100 to 1000 nM; with `CC1(O)CCCc2oc(S(=O)(=O)NC(=O)Cc3c4c(cc5c3CCC5)CCC4)cc21` (centres unmarked) [Compound 58, 2-(1,2,3,5,6,7-hexahydro-s-indacen-4-yl)-N-((4-hydroxy-4-methyl-4,5,6,7-tetrahydrobenzofuran-2-yl)sulfonyl)acetamide], 100 to 1000 nM; with `CC(C)c1cccc(C(C)C)c1NC(=O)NS(=O)(=O)c1cc2c(o1)CCCC2O` (centres unmarked) [Compound 59, N-((2,6-diisopropylphenyl)carbamoyl)-4-hydroxy-4,5,6,7-tetrahydrobenzofuran-2-sulfonamide], 100 to 1000 nM.
In turn, `CC(C)c1cccc(C(C)C)c1NC(=O)NS(=O)(=O)c1cc2c(o1)CCCC2(C)O` (centres unmarked) [Compound 60, N-((2,6-diisopropylphenyl)carbamoyl)-4-hydroxy-4-methyl-4,5,6,7-tetrahydrobenzofuran-2-sulfonamide] came in with an IC50 of 100 to 1000 nM.
With `CC(C)c1cc(Cl)cc(C(C)C)c1NC(=O)NS(=O)(=O)c1cc2c(o1)CCCC2O` (centres unmarked) [Compound 61, N-((4-chloro-2,6-diisopropylphenyl)carbamoyl)-4-hydroxy-4,5,6,7-tetrahydrobenzofuran-2-sulfonamide] the figure was 100 to 1000 nM; with `CC(C)c1cc(Cl)cc(C(C)C)c1NC(=O)NS(=O)(=O)c1cc2c(o1)CCCC2(C)O` (centres unmarked) [Compound 62, N-((4-chloro-2,6-diisopropylphenyl)carbamoyl)-4-hydroxy-4-methyl-4,5,6,7-tetrahydrobenzofuran-2-sulfonamide], below 100 nM.
With `CC(C)c1cc(F)cc(C(C)C)c1NC(=O)NS(=O)(=O)c1cc2c(o1)CCCC2O` (centres unmarked) [Compound 63, N-((4-fluoro-2,6-diisopropylphenyl)carbamoyl)-4-hydroxy-4,5,6,7-tetrahydrobenzofuran-2-sulfonamide] the figure was 100 to 1000 nM; with `CC(C)c1cc(F)cc(C(C)C)c1NC(=O)NS(=O)(=O)c1cc2c(o1)CCCC2(C)O` (centres unmarked) [Compound 64, N-((4-fluoro-2,6-diisopropylphenyl)carbamoyl)-4-hydroxy-4-methyl-4,5,6,7-tetrahydrobenzofuran-2-sulfonamide], below 100 nM; with `CC(C)c1ccc(Cl)c(C(C)C)c1NC(=O)NS(=O)(=O)c1cc2c(o1)CCCC2O` (centres unmarked) [Compound 65, N-((3-chloro-2,6-diisopropylphenyl)carbamoyl)-4-hydroxy-4,5,6,7-tetrahydrobenzofuran-2-sulfonamide], below 100 nM.
With `CC(C)c1ccc(Cl)c(C(C)C)c1NC(=O)NS(=O)(=O)c1cc2c(o1)CCCC2(C)O` (centres unmarked) [Compound 66, N-((3-chloro-2,6-diisopropylphenyl)carbamoyl)-4-hydroxy-4-methyl-4,5,6,7-tetrahydrobenzofuran-2-sulfonamide] the figure was 100 to 1000 nM; with `CC(C)c1ccc(F)c(C(C)C)c1NC(=O)NS(=O)(=O)c1cc2c(o1)CCCC2O` (centres unmarked) [Compound 67, N-((3-fluoro-2,6-diisopropylphenyl)carbamoyl)-4-hydroxy-4,5,6,7-tetrahydrobenzofuran-2-sulfonamide], 100 to 1000 nM.
The compound `CC(C)c1ccc(F)c(C(C)C)c1NC(=O)NS(=O)(=O)c1cc2c(o1)CCCC2(C)O` (centres unmarked) [Compound 68, N-((3-fluoro-2,6-diisopropylphenyl)carbamoyl)-4-hydroxy-4-methyl-4,5,6,7-tetrahydrobenzofuran-2-sulfonamide] gave an IC50 below 100 nM.
With `CC(C)c1cc(Br)cc(C(C)C)c1NC(=O)NS(=O)(=O)c1cc2c(o1)CCCC2O` (centres unmarked) [Compound 69, N-((4-bromo-2,6-diisopropylphenyl)carbamoyl)-4-hydroxy-4,5,6,7-tetrahydrobenzofuran-2-sulfonamide] the figure was 100 to 1000 nM; with `CC(C)c1cc(Br)cc(C(C)C)c1NC(=O)NS(=O)(=O)c1cc2c(o1)CCCC2(C)O` (centres unmarked) [Compound 70, N-((4-bromo-2,6-diisopropylphenyl)carbamoyl)-4-hydroxy-4-methyl-4,5,6,7-tetrahydrobenzofuran-2-sulfonamide], 100 to 1000 nM.

As usually defined, the IC50 is the midpoint of a concentration-inhibition curve.
